Laboratory results reported in article PMC11121837, “Impact of Nitric Oxide-Release Kinetics on Antifungal Activity” (Journal of Fungi, 2024).
In brackets after ≈: the same amount, converted by molar mass.

Legend:
Cryptococcus neoformans = assay: Susceptibility assay (MIC, broth microdilution, CLSI M27); format: cell-based; details: for MIC / NO dose at MIC: Cryptococcus neoformans; for MIC: 72 h; for NO dose at MIC: calculated NO dose at MIC
C. auris (MYA-5001) = format: cell-based, Candida auris
[1] = system: C. albicans (ATCC MYA-2876); assay: Checkerboard assay of NO donors with antifungals; format: cell-based, Candida albicans
[2] = system: C. neoformans (ATCC 208821); assay: Checkerboard assay of NO donors with antifungals; format: cell-based, Cryptococcus neoformans
[3] = Characterization of NO release (chemiluminescence nitric oxide analyzer); format: physicochemical
[4] = system: C. neoformans (ATCC208821); format: cell-based, Cryptococcus neoformans
[5] = system: Aspergillus fumigatus spores; assay: Susceptibility assay for sporulating fungi (MIC, EUCAST E.Def.9.4); format: cell-based; details: for Selectivity Index (IC50 AIR-100 / MIC): A. fumigatus ATCC 1022; for MIC / NO dose at MIC: ATCC1022, Aspergillus fumigatus ATCC 1022 spores; for NO dose at MIC: calculated NO dose at MIC
Candida auris = assay: Susceptibility assay (MIC, broth microdilution, CLSI M27); format: cell-based; details: for MIC / NO dose at MIC: Candidozyma auris; for MIC: 24 h; for NO dose at MIC: calculated NO dose at MIC
C. auris (ATCC MYA-5001) = assay: Checkerboard assay of NO donors with antifungals; format: cell-based, Candida auris
[6] = system: MatTek EpiAirway tissue (AIR-100); assay: cells; format: cell-based; details: Homo sapiens, 24 h, read-out: IC50 (concentration needed to inhibit tissue viability by 50%)
Candida albicans = assay: Susceptibility assay (MIC, broth microdilution, CLSI M27); format: cell-based; details: for MIC: 24 h; for NO dose at MIC: calculated NO dose at MIC
[7] = Cryptococcus neoformans ATCC MYA-4566
[8] = Cryptococcus neoformans ATCC MYA-4567
[9] = ATCC208821, 72 h, Cryptococcus neoformans ATCC 208821
[10] = ATCC208821, Cryptococcus neoformans ATCC 208821
[11] = NO donor combined with 5-fluorocytosine
[12] = NO donor combined with amphotericin B
[13] = NO donor combined with butenafine
[14] = NO donor combined with caspofungin
[15] = NO donor combined with fluconazole
[16] = NO donor combined with miconazole
[17] = phosphate-buffered saline 10 mM, pH 7.4, 37 °C
[18] = ATCC14053, Candida albicans ATCC 14053
[19] = ATCC18804, Candida albicans ATCC 18804

NCCN(CCN)/[N+]([O-])=N/O [DETA/NO, diethylenetriamine/NO]
Selectivity Index (IC50 AIR-100 / MIC) (Cryptococcus neoformans; C. neoformans ATCC 208821): 191 | Selectivity Index (IC50 AIR-100 / MIC) (Cryptococcus neoformans; C. neoformans ATCC MYA-4566): 613 | Selectivity Index (IC50 AIR-100 / MIC) (Cryptococcus neoformans; C. neoformans ATCC MYA-4567): 154 | MIC (Cryptococcus neoformans; [7]): 78 µg/mL (≈ 478 µM) | MIC (Cryptococcus neoformans; [8]): 310 µg/mL (≈ 1900 µM) | MIC (Cryptococcus neoformans; [9]): 250 µg/mL (≈ 1530 µM) | NO dose at MIC (Cryptococcus neoformans; [10]): 47 µg/mL | NO dose at MIC (Cryptococcus neoformans; [7]): 14.7 µg/mL | NO dose at MIC (Cryptococcus neoformans; [8]): 58.4 µg/mL | change in MIC or MFCs after serial passaging (C. auris (MYA-5001)): no change | checkerboard classification [1, 11]: I (indifferent (I)) | ∑FIC [1, 11]: ≥ 1 | checkerboard classification [1, 12]: I (indifferent (I)) | ∑FIC [1, 12]: ≥ 1 | checkerboard classification [1, 13]: I (indifferent (I)) | ∑FIC [1, 13]: ≥ 1 | checkerboard classification [1, 14]: I (indifferent (I)) | ∑FIC [1, 14]: ≥ 1 | checkerboard classification [1, 15]: I (indifferent (I)) | ∑FIC [1, 15]: ≥ 1 | checkerboard classification [1, 16]: S (Synergistic (S)) | ∑FIC [1, 16]: 0.375 | checkerboard classification [2, 11]: I (indifferent (I)) | ∑FIC [2, 11]: ≥ 1 | checkerboard classification [2, 12]: I (indifferent (I)) | ∑FIC [2, 12]: ≥ 1 | checkerboard classification [2, 13]: A (additive (A)) | ∑FIC [2, 13]: 0.500 | checkerboard classification [2, 14]: I (indifferent (I)) | ∑FIC [2, 14]: ≥ 1 | checkerboard classification [2, 15]: I (indifferent (I)) | ∑FIC [2, 15]: ≥ 1 | checkerboard classification [2, 16]: A (additive (A)) | ∑FIC [2, 16]: 0.562 | [NO]t, total NO released over full duration ([3]; pH 7.4): 6.3 ± 0.6 µmol/mg | [NO]max, maximum instantaneous NO concentration [3, 17]: 735 ± 94 ppb mg^−1 | td, duration of NO release [3, 17]: 107.6 ± 19.9 h | change in MIC or MFCs after serial passaging [4]: no change | Selectivity Index (IC50 AIR-100 / MIC) [5]: 150 | MIC [5]: 320 µg/mL (≈ 1960 µM) | NO dose at MIC [5]: 60.5 µg/mL | Selectivity Index (IC50 AIR-100 / MIC) (Candida auris; C. auris ATCC MYA-5000): 77 | Selectivity Index (IC50 AIR-100 / MIC) (Candida auris; C. auris ATCC MYA-5001): 1595 | Selectivity Index (IC50 AIR-100 / MIC) (Candida auris; C. auris ATCC MYA-5003): 154 | MIC (Candida auris; Candida auris ATCC MYA-5000): 625 µg/mL (≈ 3830 µM) | MIC (Candida auris; Candida auris ATCC MYA-5001): 30 µg/mL (≈ 184 µM) | MIC (Candida auris; Candida auris ATCC MYA-5003): 310 µg/mL (≈ 1900 µM) | NO dose at MIC (Candida auris; Candida auris ATCC MYA-5000): 117 µg/mL | NO dose at MIC (Candida auris; Candida auris ATCC MYA-5001): 5.65 µg/mL | NO dose at MIC (Candida auris; Candida auris ATCC MYA-5003): 58.4 µg/mL | checkerboard classification (C. auris (ATCC MYA-5001); [11]): I (indifferent (I)) | ∑FIC (C. auris (ATCC MYA-5001); [11]): ≥ 1 | checkerboard classification (C. auris (ATCC MYA-5001); [12]): I (indifferent (I)) | ∑FIC (C. auris (ATCC MYA-5001); [12]): ≥ 1 | checkerboard classification (C. auris (ATCC MYA-5001); [13]): I (indifferent (I)) | ∑FIC (C. auris (ATCC MYA-5001); [13]): ≥ 1 | checkerboard classification (C. auris (ATCC MYA-5001); [14]): I (indifferent (I)) | ∑FIC (C. auris (ATCC MYA-5001); [14]): ≥ 1 | checkerboard classification (C. auris (ATCC MYA-5001); [15]): I (indifferent (I)) | ∑FIC (C. auris (ATCC MYA-5001); [15]): ≥ 1 | checkerboard classification (C. auris (ATCC MYA-5001); [16]): I (indifferent (I)) | ∑FIC (C. auris (ATCC MYA-5001); [16]): ≥ 1 | IC50 [6]: 48000 µg/mL (≈ 294000 µM) | MIC (Candida albicans; [18]): 625 µg/mL (≈ 3830 µM) | NO dose at MIC (Candida albicans; [18]): 117 µg/mL | MIC (Candida albicans; [19]): 625 µg/mL (≈ 3830 µM) | NO dose at MIC (Candida albicans; [19]): 117 µg/mL | Selectivity Index (IC50 AIR-100 / MIC) (Candida albicans; C. albicans ATCC 14053): 77 | Selectivity Index (IC50 AIR-100 / MIC) (Candida albicans; C. albicans ATCC 18804): 77 | Selectivity Index (IC50 AIR-100 / MIC) (Candida albicans; C. albicans ATCC MYA-2876): 383 | MIC (Candida albicans; Candida albicans ATCC MYA-2876): 125 µg/mL (≈ 766 µM) | NO dose at MIC (Candida albicans; Candida albicans ATCC MYA-2876): 23.5 µg/mL

NCCCNCCCCN(CCCN)/[N+]([O-])=N/O [SPER/NO, spermine/NO]
Selectivity Index (IC50 AIR-100 / MIC) (Cryptococcus neoformans; C. neoformans ATCC 208821): 41 | Selectivity Index (IC50 AIR-100 / MIC) (Cryptococcus neoformans; C. neoformans ATCC MYA-4566): 1079 | Selectivity Index (IC50 AIR-100 / MIC) (Cryptococcus neoformans; C. neoformans ATCC MYA-4567): 263 | MIC (Cryptococcus neoformans; [7]): 19 µg/mL (≈ 72.4 µM) | MIC (Cryptococcus neoformans; [8]): 78 µg/mL (≈ 297 µM) | MIC (Cryptococcus neoformans; [9]): 500 µg/mL (≈ 1910 µM) | NO dose at MIC (Cryptococcus neoformans; [10]): 76.8 µg/mL | NO dose at MIC (Cryptococcus neoformans; [7]): 3.08 µg/mL | NO dose at MIC (Cryptococcus neoformans; [8]): 12 µg/mL | change in MIC or MFCs after serial passaging (C. auris (MYA-5001)): no changes | checkerboard classification [1, 11]: I (indifferent (I)) | ∑FIC [1, 11]: ≥ 1 | checkerboard classification [1, 12]: I (indifferent (I)) | ∑FIC [1, 12]: ≥ 1 | checkerboard classification [1, 13]: I (indifferent (I)) | ∑FIC [1, 13]: ≥ 1 | checkerboard classification [1, 14]: I (indifferent (I)) | ∑FIC [1, 14]: ≥ 1 | checkerboard classification [1, 15]: I (indifferent (I)) | ∑FIC [1, 15]: ≥ 1 | checkerboard classification [1, 16]: S (Synergistic (S)) | ∑FIC [1, 16]: 0.265 | checkerboard classification [2, 11]: I (indifferent (I)) | ∑FIC [2, 11]: ≥ 1 | checkerboard classification [2, 12]: I (indifferent (I)) | ∑FIC [2, 12]: ≥ 1 | checkerboard classification [2, 13]: A (additive (A)) | ∑FIC [2, 13]: 0.562 | checkerboard classification [2, 14]: I (indifferent (I)) | ∑FIC [2, 14]: ≥ 1 | checkerboard classification [2, 15]: I (indifferent (I)) | ∑FIC [2, 15]: ≥ 1 | checkerboard classification [2, 16]: S (Synergistic (S)) | ∑FIC [2, 16]: 0.500 | [NO]max, maximum instantaneous NO concentration [3, 17]: 7535 ± 222 ppb mg^−1 | [NO]t, total NO released over full duration [3, 17]: 5.1 ± 0.2 µmol/mg | td, duration of NO release [3, 17]: 14.8 ± 2.9 h | outcome of passaging at sub-MIC dose [4]: yeast death after the second passage | Selectivity Index (IC50 AIR-100 / MIC) [5]: 293 | MIC [5]: 70 µg/mL (≈ 267 µM) | NO dose at MIC [5]: 10.7 µg/mL | Selectivity Index (IC50 AIR-100 / MIC) (Candida auris; C. auris ATCC MYA-5000): 164 | Selectivity Index (IC50 AIR-100 / MIC) (Candida auris; C. auris ATCC MYA-5001): 82 | Selectivity Index (IC50 AIR-100 / MIC) (Candida auris; C. auris ATCC MYA-5003): 164 | MIC (Candida auris; Candida auris ATCC MYA-5000): 125 µg/mL (≈ 476 µM) | MIC (Candida auris; Candida auris ATCC MYA-5001): 250 µg/mL (≈ 953 µM) | MIC (Candida auris; Candida auris ATCC MYA-5003): 125 µg/mL (≈ 476 µM) | NO dose at MIC (Candida auris; Candida auris ATCC MYA-5000): 19.2 µg/mL | NO dose at MIC (Candida auris; Candida auris ATCC MYA-5001): 38.6 µg/mL | NO dose at MIC (Candida auris; Candida auris ATCC MYA-5003): 19.2 µg/mL | checkerboard classification (C. auris (ATCC MYA-5001); [11]): I (indifferent (I)) | ∑FIC (C. auris (ATCC MYA-5001); [11]): ≥ 1 | checkerboard classification (C. auris (ATCC MYA-5001); [12]): I (indifferent (I)) | ∑FIC (C. auris (ATCC MYA-5001); [12]): ≥ 1 | checkerboard classification (C. auris (ATCC MYA-5001); [13]): I (indifferent (I)) | ∑FIC (C. auris (ATCC MYA-5001); [13]): ≥ 1 | checkerboard classification (C. auris (ATCC MYA-5001); [14]): I (indifferent (I)) | ∑FIC (C. auris (ATCC MYA-5001); [14]): ≥ 1 | checkerboard classification (C. auris (ATCC MYA-5001); [15]): I (indifferent (I)) | ∑FIC (C. auris (ATCC MYA-5001); [15]): ≥ 1 | checkerboard classification (C. auris (ATCC MYA-5001); [16]): S (Synergistic (S)) | ∑FIC (C. auris (ATCC MYA-5001); [16]): 0.375 | IC50 [6]: 20000 µg/mL (≈ 76200 µM) | MIC (Candida albicans; [18]): 250 µg/mL (≈ 953 µM) | NO dose at MIC (Candida albicans; [18]): 38.6 µg/mL | MIC (Candida albicans; [19]): 150 µg/mL (≈ 572 µM) | NO dose at MIC (Candida albicans; [19]): 23.1 µg/mL | Selectivity Index (IC50 AIR-100 / MIC) (Candida albicans; C. albicans ATCC 14053): 82 | Selectivity Index (IC50 AIR-100 / MIC) (Candida albicans; C. albicans ATCC 18804): 137 | Selectivity Index (IC50 AIR-100 / MIC) (Candida albicans; C. albicans ATCC MYA-2876): 164 | MIC (Candida albicans; Candida albicans ATCC MYA-2876): 125 µg/mL (≈ 476 µM) | NO dose at MIC (Candida albicans; Candida albicans ATCC MYA-2876): 19.2 µg/mL
